For 36 compounds, melting point results are on record in US8802678B2, “Carbonylated (aza) cyclohexanes as dopamine D3 receptor ligands” (Bioprojet, priority 2006, dated 2014).

Each structure is given as a SMILES string.

`COCC(=O)N[C@H]1CC[C@H](CCN2CCC(c3cccc(C)c3C#N)CC2)CC1` [Example 55, N-(4-{2-[4-(2-Cyano-3-methylphenyl)piperidin-1-yl]ethyl}cyclohexyl)-2-methoxyacetamide]: the melting point is 141 °C. `CCOCC(=O)N[C@H]1CC[C@H](CCN2CCN(c3ccccc3F)CC2)CC1` [Example 56, 2-Ethoxy-N-(4-{2-[4-(2-fluorophenyl)piperazin-1-yl]ethyl}cyclohexyl)acetamide] had a melting point of 117 to 118 °C.

On to `O=C(N[C@H]1CC[C@H](CCN2CCN(c3ccccc3F)CC2)CC1)C1CCCO1` (stereo partly drawn) [Example 57, Tetrahydrofuran-2-carboxylic acid (4-{2-[4-(2-fluorophenyl)piperazin-1-yl]ethyl}cyclohexyl)amide], for which the melting point is 119 to 120 °C. Next, `COCC(=O)N[C@H]1CC[C@H](CCN2CCN(c3ccccc3C#N)CC2)CC1` [Example 58, N-(4-{2-[4-(2-Cyanophenyl)-piperazin-1-yl]ethyl}cyclohexyl)-2-methoxyacetamide]: 113 °C; `COCC(=O)N[C@H]1CC[C@H](CCN2CCN(c3ccccc3)CC2)CC1` [Example 60, 2-Methoxy-N-{4-[2-(4-phenylpiperazin-1-yl)ethyl]-cyclohexyl}acetamide]: 136 °C.

Take `O=C(CC(F)(F)F)N[C@H]1CC[C@H](CCN2CCN(c3cccc(C(F)(F)F)c3)CC2)CC1` [Example 63, 3,3,3-Trifluoro-N-(4-{2-[4-(3-trifluoromethylphenyl)piperazin-1-yl]ethyl}cyclohexyl)propanamide]: the melting point came to 156 °C. Next, `COCCCC(=O)N[C@H]1CC[C@H](CCN2CCN(c3cccc(C(F)(F)F)c3)CC2)CC1` [Example 64, 4-Methoxy-N-(4-{2-[4-(3-trifluoromethylphenyl)piperazin-1-yl]ethyl}cyclohexyl)butanamide]: 149 °C; `O=C(N[C@H]1CC[C@H](CCN2CCN(c3ccccc3)CC2)CC1)C1=CCCCC1` [Example 66, Cyclohex-1-enecarboxylic acid {4-[2-(4-phenylpiperazin-1-yl)ethyl]cyclohexyl}amide trans/cis 90/10]: 193 °C; `O=C(N[C@H]1CC[C@H](CCN2CCN(c3ccccc3F)CC2)CC1)C1=CCCCC1` [Example 67, Cyclohex-1-enecarboxylic acid (4-{2-[4-(2-fluorophenyl)-piperazin-1-yl]ethyl}cyclohexyl)-amide]: 209 °C. Next, `O=C(N[C@H]1CC[C@H](CCN2CCN(c3ccccc3F)CC2)CC1)C1=CCCC1` [Example 68, Cyclopent-1-enecarboxylic acid (4-{2-[4-(2-fluorophenyl)-piperazin-1-yl]ethyl}-cyclohexyl)amide]: 210 to 211 °C; `O=C(N[C@H]1CC[C@H](CCN2CCN(c3ccccc3F)CC2)CC1)C1CC=CC1` [Example 70, Cyclopent-3-enecarboxylic acid (4-{2-[4-(2-fluorophenyl)-piperazin-1-yl]ethyl}-cyclohexyl)amide trans/cis 95/5]: 204 °C. `O=C(N[C@H]1CC[C@H](CCN2CCN(c3ccc(F)cc3F)CC2)CC1)C1=CCCCC1` [Example 71, Cyclohex-1-enecarboxylic acid (4-{2-[4-(2,4-difluorophenyl)-piperazin-1-yl]ethyl}-cyclohexyl)amide]: the melting point amounted to 203 °C. Next, `CCOCC(=O)N[C@H]1CC[C@H](CCN2CCN(c3ccccc3C#N)CC2)CC1` [Example 73, N-(4-{2-[4-(2-Cyanophenyl)-piperazin-1-yl]ethyl}cyclohexyl)-2-ethoxyacetamide]: 96 °C; `N#Cc1ccccc1N1CCN(CC[C@H]2CC[C@H](NC(=O)C3=CCCC3)CC2)CC1` [Example 74, Cyclopent-1-enecarboxylic acid (4-{2-[4-(2-cyanophenyl)-piperazin-1-yl]ethyl}cyclohexyl)-amide]: 167 °C; `COCCCC(=O)N[C@H]1CC[C@H](CCN2CCN(c3ccccc3F)CC2)CC1` [Example 76, N-(4-{2-[4-(2-Fluorophenyl)-piperazin-1-yl]ethyl}cyclohexyl)-4-methoxybutanamide]: 175 °C. For the compound `COC(C)(C)C(=O)N[C@H]1CC[C@H](CCN2CCN(c3cccc(C(F)(F)F)c3)CC2)CC1` [Example 77, 2-Methoxy-2-methyl-N-(4-{2-[4-(3-trifluoromethylphenyl)-piperazin-1-yl]ethyl}cyclohexyl)-propanamide], the melting point was determined as 105 °C.

Turning to `CCOCC(=O)N[C@H]1CC[C@H](CCN2CCN(c3cccc(C#N)c3)CC2)CC1` [Example 78, N-(4-{2-[4-(3-Cyanophenyl)-piperazin-1-yl]ethyl}cyclohexyl)-2-ethoxyacetamide trans/cis 75/25], the melting point was 90 °C. Next, `N#CCC(=O)N[C@H]1CC[C@H](CCN2CCN(c3ccccc3F)CC2)CC1` [Example 79, 2-Cyano-N-(4-{2-[4-(2-fluorophenyl)piperazin-1-yl]ethyl}cyclohexyl)acetamide]: 179 to 180 °C; `CSCC(=O)N[C@H]1CC[C@H](CCN2CCN(c3cccc(C(F)(F)F)c3)CC2)CC1` [Example 80, 2-Methylsulfanyl-N-(4-{2-[4-(3-trifluoromethylphenyl)piperazin-1-yl]ethyl}cyclohexyl)acetamide]: 128 °C; `CCOCC(=O)N[C@H]1CC[C@H](CCN2CCC(c3cccc(C(F)(F)F)c3)CC2)CC1` [Example 83, 2-Ethoxy-N-(4-{2-[4-(3-trifluoromethylphenyl)piperidin-1-yl]ethyl}cyclohexyl)acetamide]: 84 °C. For `COCCCC(=O)N[C@H]1CC[C@H](CCN2CCC(c3cccc(C(F)(F)F)c3)CC2)CC1` [Example 84, 4-Methoxy-N-(4-{2-[4-(3-trifluoromethylphenyl)piperidin-1-yl]ethyl}cyclohexyl)butanamide] the value was 134 °C; for `COCC(=O)N[C@H]1CC[C@H](CCN2CCN(c3cccc(C#N)c3)CC2)CC1` [Example 86, N-(4-{2-[4-(3-Cyanophenyl)piperazin-1-yl]ethyl}cyclohexyl)-2-methoxyacetamide], 138 °C. Next, `O=C(CC(F)(F)F)N[C@H]1CC[C@H](CCN2CCN(c3ccccc3F)CC2)CC1` [Example 87, 3,3,3-Trifluoro-N-(4-{2-[4-(2-fluorophenyl)piperazin-1-yl]ethyl}cyclohexyl)propanamide]: 207 °C. With `O=C(COc1ccccc1)N[C@H]1CC[C@H](CCN2CCN(c3ccccc3F)CC2)CC1` [Example 88, N-(4-{2-[4-(2-Fluorophenyl)-piperazin-1-yl]ethyl}cyclohexyl)-2-phenoxyacetamide], the melting point was 172 °C. Regarding `CCC(=O)C(=O)N[C@H]1CC[C@H](CCN2CCN(c3ccccc3F)CC2)CC1` [Example 89, N-(4-{2-[4-(2-Fluorophenyl)-piperazin-1-yl]ethyl}cyclohexyl)-2-oxobutanamide], the melting point was 156 °C. Next, `N#CCC(=O)N[C@H]1CC[C@H](CCN2CCN(c3cccc(C#N)c3)CC2)CC1` [Example 90, 2-Cyano-N-(4-{2-[4-(3-cyanophenyl)piperazin-1-yl]ethyl}cyclohexyl)acetamide trans/cis 75/25]: 188 °C; `COCC(=O)N[C@H]1CC[C@H](CCN2CCN(c3cccc(F)c3F)CC2)CC1` [Example 91, N-(4-{2-[4-(2,3-Difluorophenyl)-piperazin-1-yl]ethyl}cyclohexyl)-2-methoxyacetamide]: 155 °C; `COCCCC(=O)N[C@H]1CC[C@H](CCN2CCN(c3cc(F)c(F)c(F)c3F)CC2)CC1` [Example 93, 4-Methoxy-N-(4-{2-[4-(2,3,4,5-tetrafluorophenyl)piperazin-1-yl]ethyl}cyclohexyl)butyramide]: 201 °C. For `CC(C)OCC(=O)N[C@H]1CC[C@H](CCN2CCN(c3ccccc3F)CC2)CC1` [Example 97, N-(4-{2-[4-(2-Fluorophenyl)-piperazin-1-yl]ethyl}cyclohexyl)-2-isopropoxyacetamide] the value was 96 °C; for `N#CCCCC(=O)N[C@H]1CC[C@H](CCN2CCN(c3cc(F)c(F)c(F)c3F)CC2)CC1` [Example 98, 4-Cyano-N-(4-{2-[4-(2,3,4,5-tetrafluorophenyl)piperazin-1-yl]ethyl}cyclohexyl)butyramide], 180 °C; for `COCCCC(=O)N[C@H]1CC[C@H](CCN2CCN(c3ccccc3)CC2)CC1` [Example 99, 4-Methoxy-N-{4-[2-(4-phenylpiperazin-1-yl)ethyl]cyclohexyl}butanamide], 172 °C.

For the compound `CC(C)OCC(=O)N[C@H]1CC[C@H](CCN2CCN(c3cccc(C(F)(F)F)c3C#N)CC2)CC1` [Example 101, N-(4-{2-[4-(2-Cyano-3-trifluoromethylphenyl)piperazin-1-yl]ethyl}cyclohexyl)-2-isopropoxyacetamide], the melting point was found to be 144 °C. `CCOCC(=O)N[C@H]1CC[C@H](CCN2CCN(c3cccc(C(F)(F)F)c3C#N)CC2)CC1` [Example 102, N-(4-{2-[4-(2-Cyano-3-trifluoromethylphenyl)piperazin-1-yl]ethyl}cyclohexyl)-2-ethoxyacetamide] yielded a melting point of 173 °C.

`N#CCC(=O)N[C@H]1CC[C@H](CCN2CCN(c3cccc(C(F)(F)F)c3C#N)CC2)CC1` [Example 103, 2-Cyano-N-(4-{2-[4-(2-cyano-3-trifluoromethylphenyl)piperazin-1-yl]ethyl}cyclohexyl)acetamide] came in with a melting point of 222 °C. Next, `CC(=O)NCC(=O)N[C@H]1CC[C@H](CCN2CCN(c3cccc(C(F)(F)F)c3)CC2)CC1` [Example 105, 2-Acetylamino-N-(4-{2-[4-(3-trifluoromethylphenyl)piperazin-1-yl]ethyl}cyclohexyl)acetamide]: 187 °C; `N#CCC(=O)N[C@H]1CC[C@H](CCN2CCN(c3cc(C(F)(F)F)cc(C(F)(F)F)c3)CC2)CC1` [Example 107, N-(4-{2-[4-(3,5-Bistrifluoro-methylphenyl)piperazin-1-yl]ethyl}cyclohexyl)-2-cyanoacetamide]: 196 °C.

By melting point is commonly meant the temperature of the solid-liquid transition.
